Test results from patent publication US20230136075A1, “TREATMENT FOR SEPSIS-INDUCED ORGAN DYSFUNCTION” (The Florey Institute of Neuroscience and Mental Health, priority 2020, published 2023).
Like-named read-outs stand apart in the source and are kept apart here.

Test system: ovine sepsis induced by intravenous infusion of live E. coli
Excerpt: Using this model, the inventors have investigated the effect of mega dose intravenous vitamin C therapy on various parameters indicative of the progression of sepsis in sheep (Merino ewes, 35-45 kg; 1.5-2.0 years old). Sheep were divided into two groups, a vitamin C (sodium ascorbate) therapy group and a vehicle group as a control. Experimental protocols were approved by the Animal Ethics Committee of the Florey Institute of Neuroscience and Mental Health under guidelines of the National Health and Medical Research Council of Australia.
Preparatory surgical procedures were carried out as described in Lankadeva et al. (2018b). Briefly, two preparatory surgical procedures were performed under general anaesthesia. First, a carotid artery was exteriorised into a skin fold to form a carotid arterial loop to facilitate cannulation for measurement of arterial pressure and heart rate, and for blood sampling. During the same surgical procedure, a flow probe was placed around the pulmonary artery to measure cardiac output. Animals were allowed 3-4 weeks of recovery. Second, a flow probe was implanted around a renal artery to measure renal blood flow, a renal vein was cannulated for blood sampling and fibre optic probes were inserted into the renal cortex, renal medulla (within kidneys) and parietal cortex (brain) to measure tissue perfusion, oxygen tension and temperature.
During the second surgical procedure cannulae were implanted in the carotid artery for arterial pressure measurement and blood sampling and the jugular vein for infusion of fluids, vasopressors, Escherichia coli, sodium ascorbate and blood sampling, and a Foley catheter was inserted into the bladder to collect urine and monitor hourly urine output.
Following three days of recovery from the second surgical procedure, the experimental protocol (see FIG. 1) was initiated in conscious sheep, to avoid the confounding effects of general anaesthesia. Animals daily food and water intake and urine output was measured on a 24-hour basis during the course of the 5-day protocol.
First, a 24-hour baseline period was commenced, which included measurement of systemic haemodynamics, renal and brain perfusion and oxygenation, arterial, central venous and renal venous blood gases and lactate, and urine output. Arterial blood and urine samples were collected at set times during the experimental period.
After establishment of the 24-hour baseline period, gram-negative sepsis was induced by intravenous infusion of live E. coli (isolated from a patient with sepsis at Austin Health) as described in Lankadeva et al. (2018b), administered as a loading (bolus) infusion of 2.8×10^9 colony-forming units (CFU) over 30-minutes followed by a continuous infusion of 1.26×10^9 CFU/h for 30.5 hours. No prophylactic antibiotics, sedative or analgesic agents were administered during this protocol. The description in the following paragraphs is with reference to the protocol as shown schematically in FIG. 1.
At 23 hours of sepsis, when sheep had fulfilled the clinical criteria for sepsis (i.e. established hypotension, tachycardia, fever, lung injury, tachypnoea, hyperlactatemia and stage 1-2 acute kidney injury) animals were resuscitated with 30 mL/kg balanced crystalloid sodium lactate (Hartmann's solution infused at approximately 2500 ml/hr) for 30 mins, from 23-23.5 hours of sepsis.
A blocked randomization design was used to allocate sheep to treatment with sodium ascorbate or vehicle.

[1] = sodium ascorbate infusion, 24-31 hr of sepsis
[2] = sodium ascorbate infusion, 24-31 hr of sepsis, maintained for the following 2 days

`O=C1O[C@H]([C@@H](O)CO)C([O-])=C1O.[Na+]` [sodium ascorbate] was tested, and the “clinical state of septic sheep” value (after infusion of sodium ascorbate for 3 hours, 0.5 g/kg bolus then 0.5 g/kg/hr iv, n=5) was “dramatically improved”, the “renal histology: acute tubular necrosis or interstitial fibrosis in renal cortex, corticomedullary junction or medulla” value (at 48 hours of recovery) was “no acute tubular necrosis or interstitial fibrosis” and the “dose of norepinephrine required to maintain mean arterial pressure” value (by 4 hours of sodium ascorbate infusion, n=5) was “not required in four of five sheep”. The body temperature (during sodium ascorbate therapy, 24-31 hr of sepsis, septic fever 41.4±0.2) was about 39 °C, the “arterial blood potassium (hypokalemia)” value (infusion of sodium ascorbate) was 3.14 ± 0.16 mmol/L and the “arterial blood sodium (hypernatremia)” value (infusion of sodium ascorbate) was 153.6 ± 1.7 mmol/L. The “ischemia and hypoxia in the brain” value (sodium ascorbate 3.75 g/kg intravenous) was “a reversal of ischemia and hypoxia in the brain”, the “arterial blood pH” value [1] was “no effects” and the cardiac output [1] was “significant, progressive decreases”. The creatinine clearance [1] was “significantly increased”, the “fraction excretion of potassium” value [1] was “did not alter” and the “fractional excretion of sodium” value [1] was “significantly increased”. The heart rate [1] was “significant, progressive decreases”, the “partial pressure of carbon dioxide” value [1] was “no effects” and the plasma creatinine [1] was “corrected the increased plasma creatinine to below baseline levels”. For the same molecule, the renal blood flow [1] was “decreased toward healthy levels”, the “renal cortical tissue PO2” value [1] was “Neither fluid bolus therapy, sodium ascorbate, nor norepinephrine had significant effects” and the renal vascular conductance [1] was “decreased toward healthy levels”. The “level of peripheral vasoconstriction” value (sodium ascorbate infusion, 24-31 hr of sepsis, despite reduced norepinephrine dose) was “increased”, the “renal medullary PO2” value [2] was “increased further throughout the infusion” and the renal medullary perfusion [2] was “improved toward preseptic levels”. For the same molecule, the arterial lactate (sodium ascorbate infusion, 2.0±0.2 mmol/L at 23 hours of sepsis) was “significant, progressive reduction”, the “arterial PO2” value (sodium ascorbate infusion, 80±3 at 23 hours of sepsis) was 96.5±3.4 mm Hg and the “increase in plasma aspartate aminotransferase during sepsis” value (sodium ascorbate treatment) was “significantly reduced”. The “increase in plasma bilirubin during sepsis” value (sodium ascorbate treatment) was “significantly reduced”, the urine flow (the 2 days following sodium ascorbate infusion) was “remained at normal baseline levels” and the urine flow (within 30 minutes of sodium ascorbate infusion, remained high throughout the infusion) was “greater than 10 mL/kg/hr”.
